Measured values published in article PMC8205603, “Simultaneous Quantification of Pioglitazone and Omarigliptin in Rat Plasma by UHPLC-MS/MS and Its Application to Pharmacokinetic Study after Coadministration of the Two Drugs” (Journal of Analytical Methods in Chemistry, 2021).
Where a name gives a salt, the structure may show the parent alone. Read-outs that look alike come from different tables or passages of the source.

Columns and labels:
[1] = Pharmacokinetics study in rats after single or combined intragastric administration; format: in vivo, Sprague-Dawley rats; conditions: plasma, male SD rats
Description: Fifteen male Sprague-Dawley rats (6-8 weeks old, 190-210 g) were purchased from Jinan Pengyue Laboratory Animal Technology Co., Ltd. (Jinan, China). The animal certification number was 3707262011004044 and the production license number was SCXK (Lu) 20190003. Before the formal experiment, all rats were adaptively fed for one week at a temperature of 24 ± 2°C and a humidity of 55 ± 5% and then were randomly divided into three groups. In order to guarantee animal welfare, Animal Experiments Guidelines of Yantai Institute of Materia Medica (Yantai, China) was enforced. Pioglitazone and omarigliptin were suspended into 0.5% carboxymethyl cellulose sodium salt (CMC-Na) for intragastric administration. The dosage for rats was calculated based on the clinical dose. […] About 200 μL whole blood was collected into the heparinized tube at 0 min (pre-dose), 15 min, 30 min, 1 […], and 48 h and centrifugated immediately to collect plasma. All plasma samples were frozen at -20°C until analysis. Samples were processed and analyzed by the validated method. Data were acquired and analyzed by Xcalibur 4.1 software (Thermo Fisher Scientific, Massachusetts, USA). Pharmacokinetic parameters were calculated based on noncompartmental model using Phoenix WinNonlin 7.0 (Pharsight, Mountain View, CA). All data were shown as mean ± SD.

[2] = Stability of QC samples in rat plasma under different storage conditions; format: physicochemical; conditions: n = 5
Description: Different concentrations of working solutions were diluted 20 times with blank rat plasma to prepare corresponding calibration samples. Final concentrations of calibration samples were 5, 25, 50, 100, 250, 500, 1000, and 2000 ng/mL for pioglitazone and 10, 50, 100, 200, 500, 1000, 2000, and 4000 ng/mL for omarigliptin. Quality control (QC) samples (5, 15, 400, 1500 ng/mL for pioglitazone and 10, 30, 800, 3000 ng/mL for omarigliptin) were prepared as the same way. All plasma samples were stored at −20°C until analysis.
QC samples with low, medium, and high concentrations were analyzed under different conditions, such as kept at room temperature for 6 h, frozen and thawed for three cycles, and frozen at −20°C for 7 days. The postextraction samples were stored in autosampler at 10°C for 24 hours and then reinjected to evaluate the autosampler stability. The measured concentrations were calculated according to the following standard curve. RE (%) and RSD (%) should be within ±15%.

[3] = male, Sprague-Dawley, rat, po, 2.6 mg/kg, omarigliptin 2.6 mg/kg in combination with pioglitazone 2.6 mg/kg, intragastric, n = 5
[4] = male, Sprague-Dawley, rat, po, 2.6 mg/kg, omarigliptin 2.6 mg/kg intragastric, single administration, n = 5
[5] = Auto-sampler stability (10°C for 24 h), postextraction samples, nominal 30 ng/mL omarigliptin
[6] = Auto-sampler stability (10°C for 24 h), postextraction samples, nominal 800 ng/mL omarigliptin
[7] = Auto-sampler stability (10°C for 24 h), postextraction samples, nominal 3000 ng/mL omarigliptin
[8] = Freeze (−20°C for 7 days), rat plasma, nominal 30 ng/mL omarigliptin
[9] = Freeze (−20°C for 7 days), rat plasma, nominal 800 ng/mL omarigliptin
[10] = Freeze (−20°C for 7 days), rat plasma, nominal 3000 ng/mL omarigliptin
[11] = Room temperature for 6 h, rat plasma, nominal 30 ng/mL omarigliptin
[12] = Room temperature for 6 h, rat plasma, nominal 800 ng/mL omarigliptin
[13] = Room temperature for 6 h, rat plasma, nominal 3000 ng/mL omarigliptin
[14] = Three freeze-thaw cycles, rat plasma, nominal 30 ng/mL omarigliptin
[15] = Three freeze-thaw cycles, rat plasma, nominal 800 ng/mL omarigliptin
[16] = Three freeze-thaw cycles, rat plasma, nominal 3000 ng/mL omarigliptin
[17] = male, Sprague-Dawley, rat, po, 2.6 mg/kg, pioglitazone 2.6 mg/kg in combination with omarigliptin 2.6 mg/kg, intragastric, n = 5
[18] = male, Sprague-Dawley, rat, po, 2.6 mg/kg, pioglitazone 2.6 mg/kg intragastric, single administration, n = 5
[19] = Auto-sampler stability (10°C for 24 h), postextraction samples, nominal 15 ng/mL pioglitazone
[20] = Auto-sampler stability (10°C for 24 h), postextraction samples, nominal 400 ng/mL pioglitazone
[21] = Auto-sampler stability (10°C for 24 h), postextraction samples, nominal 1500 ng/mL pioglitazone
[22] = Freeze (−20°C for 7 days), rat plasma, nominal 15 ng/mL pioglitazone
[23] = Freeze (−20°C for 7 days), rat plasma, nominal 400 ng/mL pioglitazone
[24] = Room temperature for 6 h, rat plasma, nominal 15 ng/mL pioglitazone
[25] = Room temperature for 6 h, rat plasma, nominal 400 ng/mL pioglitazone
[26] = Room temperature for 6 h, rat plasma, nominal 1500 ng/mL pioglitazone
[27] = Three freeze-thaw cycles, rat plasma, nominal 15 ng/mL pioglitazone
[28] = Three freeze-thaw cycles, rat plasma, nominal 400 ng/mL pioglitazone
[29] = Three freeze-thaw cycles, rat plasma, nominal 1500 ng/mL pioglitazone

Structure (SMILES): CS(=O)(=O)n1cc2c(n1)CN([C@H]1CO[C@H](c3cc(F)ccc3F)[C@@H](N)C1)C2 [Omarigliptin]
- AUC(0-inf) [1, 3]: 31300 ± 3820 ng·h/mL
- AUC(0-t) [1, 3]: 30400 ± 3760 ng·h/mL
- Cmax [1, 3]: 2520 ± 435 ng/mL
- Tmax ([1]; male, Sprague-Dawley, rat, po, 2.6 mg/kg, omarigliptin 2.6 mg/kg in combination with pioglitazone 2.6 mg/kg, intragastric, n = 5, read-out: t max): 1.8 ± 0.4 h
- AUC(0-inf) [1, 4]: 37700 ± 4100 ng·h/mL
- AUC(0-t) [1, 4]: 36600 ± 4060 ng·h/mL
- Cmax [1, 4]: 3000 ± 394 ng/mL
- Tmax ([1]; male, Sprague-Dawley, rat, po, 2.6 mg/kg, omarigliptin 2.6 mg/kg intragastric, single administration, n = 5, read-out: t max): 1.5 ± 0.7 h
- t 1/2 ([1]; omarigliptin 2.6 mg/kg intragastric, single administration, n = 5): 10.9 ± 0.5 h
- Accuracy (RE %) [2, 5]: 6.70%
- Measured concentrations [2, 5]: 32.01 ± 2.13 ng/mL
- Accuracy (RE %) [2, 6]: −4.69%
- Measured concentrations [2, 6]: 762.47 ± 4.84 ng/mL
- Accuracy (RE %) [2, 7]: −0.09%
- Measured concentrations [2, 7]: 2997.38 ± 9.39 ng/mL
- Accuracy (RE %) [2, 8]: −4.79%
- Measured concentrations [2, 8]: 28.56 ± 0.11 ng/mL
- Accuracy (RE %) [2, 9]: 0.28%
- Measured concentrations [2, 9]: 802.26 ± 4.01 ng/mL
- Accuracy (RE %) [2, 10]: −10.36%
- Measured concentrations [2, 10]: 2689.12 ± 45.57 ng/mL
- Accuracy (RE %) [2, 11]: 0.05%
- Measured concentrations [2, 11]: 30.01 ± 0.40 ng/mL
- Accuracy (RE %) [2, 12]: −7.74%
- Measured concentrations [2, 12]: 738.06 ± 4.52 ng/mL
- Accuracy (RE %) [2, 13]: −2.07%
- Measured concentrations [2, 13]: 2937.89 ± 7.68 ng/mL
- Accuracy (RE %) [2, 14]: −5.13%
- Measured concentrations [2, 14]: 28.46 ± 0.25 ng/mL
- Accuracy (RE %) [2, 15]: −0.68%
- Measured concentrations [2, 15]: 794.54 ± 9.37 ng/mL
- Accuracy (RE %) [2, 16]: −10.98%
- Measured concentrations [2, 16]: 2670.56 ± 16.54 ng/mL

Structure (SMILES): CCc1ccc(CCOc2ccc(CC3SC(=O)NC3=O)cc2)nc1 (stereo not drawn) [Pioglitazone, Pioglitazone hydrochloride]
- AUC(0-inf) [1, 17]: 19000 ± 2600 ng·h/mL
- AUC(0-t) [1, 17]: 19000 ± 2580 ng·h/mL
- Cmax [1, 17]: 2460 ± 754 ng/mL
- half-life [1, 17]: 2.1 ± 0.2 h
- AUC(0-inf) [1, 18]: 17000 ± 2130 ng·h/mL
- AUC(0-t) [1, 18]: 16900 ± 2210 ng·h/mL
- Cmax [1, 18]: 2550 ± 475 ng/mL
- half-life [1, 18]: 2.8 ± 1 h
- Tmax ([1]; male, Sprague-Dawley, rat, po, 2.6 mg/kg, pioglitazone 2.6 mg/kg intragastric, single administration, n = 5, read-out: t max): 1.8 ± 0.4 h
- Tmax ([1]; pioglitazone 2.6 mg/kg in combination with omarigliptin 2.6 mg/kg, intragastric, n = 5): 2.0 ± 0 h
- Accuracy (RE %) [2, 19]: 3.95%
- Measured concentrations [2, 19]: 15.59 ± 1.05 ng/mL
- Accuracy (RE %) [2, 20]: −9.17%
- Measured concentrations [2, 20]: 363.31 ± 1.73 ng/mL
- Accuracy (RE %) [2, 21]: −5.24%
- Measured concentrations [2, 21]: 1421.47 ± 7.30 ng/mL
- Accuracy (RE %) [2, 22]: −8.77%
- Measured concentrations [2, 22]: 13.68 ± 0.10 ng/mL
- Accuracy (RE %) [2, 23]: 0.24%
- Measured concentrations [2, 23]: 400.95 ± 1.64 ng/mL
- Measured concentrations ([2]; Freeze (−20°C for 7 days), rat plasma, nominal 1500 ng/mL pioglitazone): 1328.31 ± 5.99 ng/mL
- Accuracy (RE %) [2, 24]: −4.62%
- Measured concentrations [2, 24]: 14.31 ± 0.34 ng/mL
- Accuracy (RE %) [2, 25]: −9.56%
- Measured concentrations [2, 25]: 361.75 ± 1.91 ng/mL
- Accuracy (RE %) [2, 26]: −5.41%
- Measured concentrations [2, 26]: 1418.82 ± 5.26 ng/mL
- Accuracy (RE %) [2, 27]: −8.12%
- Measured concentrations [2, 27]: 13.78 ± 0.11 ng/mL
- Accuracy (RE %) [2, 28]: 0.52%
- Measured concentrations [2, 28]: 402.08 ± 1.11 ng/mL
- Accuracy (RE %) [2, 29]: −11.10%
- Measured concentrations [2, 29]: 1333.57 ± 7.61 ng/mL
